We go through 17 molecules from patent publication US11512053B2, “Arginine methyltransferase inhibitors and uses thereof” (priority 2013, dated 2022).

pIC50: −log10 of the molar value. Like-named read-outs stand apart in the source and are kept apart here.

This assay has as its target full-length human PRMT8 isoform 1 (Homo sapiens, UniProt Q9NR22). Nature of the assay: PRMT8 Biochemical Assay (3H-SAM Flashplate, peptide substrate). The following applies: read-out: Biochemical IC50 PRMT8. The text has this: General Materials. S-adenosylmethionine (SAM), S-adenosylhomocysteine (SAH), bicine, Tween20, dimethylsulfoxide (DMSO), bovine skin gelatin (BSG), isopropyl-β-D-thiogalactopyranoside (IPTG), and Tris(2-carboxyethyl)phosphine hydrochloride solution (TCEP) were purchased from Sigma-Aldrich at the highest level of purity possible. ^3H-SAM was purchase from American Radiolabeled Chemicals with a specific activity of 80 Ci/mmol. 384-well streptavidin Flashplates were purchased from PerkinElmer.
Substrates. Peptide representative of human histone H4 residues 31-45 was synthesized with an N-terminal linker-affinity tag motif and a C-terminal amide cap by 21st Century Biochemicals. The peptide was purified by high-performance liquid chromatography (HPLC) to greater than 95% purity and confirmed by liquid chromatography mass spectrometry (LC-MS). The sequence was Biot-Ahx-[…]-amide (SEQ ID NO.:8).
The resulting construct encodes an N-terminal GST tag and a thrombin cleavage sequence ([…] […] […] […] SPEF) (SEQ ID NO.:9) fused directly to Met 1 of PRMT8.
Protein Expression. E. coli (BL21(DE3) Gold, Stratagene) made competent by the CaCl2) method were transformed with the PRMT8 construct and ampicillin selection. Protein over-expression was accomplished by growing the PRMT8 expressing E. coli clone and inducing expression with 0.3 mM IPTG at 16° C. The culture was grown for 12 hours, harvested by centrifugation, and stored at −80° C. for purification.
Protein Purification. […] GST-tagged PRMT8 was eluted with 50 mM Tris, 2 mM glutathione, pH 7.8. Pooled fractions were cleaved by thrombin (10U) and dialysed in buffer A. GST was removed by reloading the cleaved protein sample onto glutathione sepharose column and PRMT8 was collected in the flow-through fractions. PRMT8 was purified further by ceramic hydroxyapatite chromatography. The column was washed with 50 mM phosphate buffer, 100 mM NaCl, 5% glycerol, 5 mM β-mercaptoethanol, pH 7.8 and PRMT8 was eluted by 100 mM phosphate in the same buffer. Protein was concentrated and buffer was exchanged to 50 mM Tris, 300 mM NaCl, 10% glycerol, 5 mM β-mercaptoethanol, pH 7.8 by ultrafiltration. The purity of recovered protein was 89%.
General Procedure for PRMT8 Enzyme Assays on Peptide Substrates. The assays were all performed in a buffer consisting of 20 mM Bicine (pH=7.6), 1 mM TCEP, 0.005% BSG, and 0.002% Tween 20, prepared on the day of use. Compounds in 100% DMSO (1 ul) were spotted into a polypropylene 384-well V-bottom plates (Greiner) using a Platemate Plus outfitted with a 384-channel head (Thermo Scientific). DMSO (1 ul) was added to Columns 11, 12, 23, 24, rows A-H for the maximum signal control and 1 ul of SAH, a known product and inhibitor of PRMT8, was added to columns 11, 12, 23, 24, rows I-P for the minimum signal control. A cocktail (40 ul) containing the PRMT8 enzyme was added by Multidrop Combi (Thermo-Fisher). The compounds were allowed to incubate with PRMT8 for 30 min at room temperature, then a cocktail (10 ul) containing ^3H-SAM and peptide was added to initiate the reaction (final volume=51 ul). The final concentrations of the components were as follows: PRMT8 was 1.5 nM, ^3H-SAM was 50 nM, non-radiolabeled SAM was 550 nM, peptide was 150 nM, SAH in the minimum signal control wells was 1 mM, and the DMSO concentration was 2%. The assays were stopped by the addition of non-radiolabeled SAM (10 ul) to a final concentration of 400 uM, which dilutes the ^3H-SAM to a level where its incorporation into the peptide substrate is no longer detectable. 50 ul of the reaction in the 384-well polypropylene plate was then transferred to a 384-well Flashplate and the biotinylated peptides were allowed to bind to the streptavidin surface for at least 1 hour before being washed once with 0.1% Tween20 in a Biotek ELx405 plate washer. […]

Setting [1] is: single experiment or average of multiple experiments.

Chain of full-length human PRMT8 isoform 1 (Q9NR22 whole entry, the tested form may be a part, canonical isoform): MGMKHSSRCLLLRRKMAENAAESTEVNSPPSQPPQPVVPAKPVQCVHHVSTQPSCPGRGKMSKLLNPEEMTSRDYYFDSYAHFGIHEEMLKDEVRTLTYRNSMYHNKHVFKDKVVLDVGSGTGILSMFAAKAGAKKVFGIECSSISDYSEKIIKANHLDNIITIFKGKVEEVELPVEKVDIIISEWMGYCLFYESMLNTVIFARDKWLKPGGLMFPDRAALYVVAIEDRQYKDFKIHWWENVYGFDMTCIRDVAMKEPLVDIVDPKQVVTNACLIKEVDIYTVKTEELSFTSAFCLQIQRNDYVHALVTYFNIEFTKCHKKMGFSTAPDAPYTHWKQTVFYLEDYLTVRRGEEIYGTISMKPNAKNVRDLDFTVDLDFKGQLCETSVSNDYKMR

As for `CNCCN(C)Cc1c[nH]nc1[C@H]1CC[C@]2(CCC(C)(C)O2)CC1` [Compound 104], the negative-log IC50 (pIC50) was greater than 7.00. The pIC50 under setting [1] was 7.94.
In the same order, the values of `CCC(=O)N(CC1CCOCC1)[C@H]1CC[C@@H](c2n[nH]cc2CN(C)CCNC)CC1` [Compound 108] are 6.00 to 7.00 and 6.60.
For the molecule `CNCCN(C)Cc1c[nH]nc1[C@H]1CC[C@@]2(CCN(Cc3cc(F)cc(F)c3)C2=O)CC1` [Compound 126], the pIC50 was greater than 7.00. Moreover, the negative logarithm of the IC50 (pIC50) under setting [1] is 8.19.
In the same order, the values of `CCC(=O)N(CC1CCOCC1)[C@H]1CC[C@H](c2n[nH]cc2CN(C)CCNC)CC1` [Compound 109] are greater than 7.00 and 7.25.
Turning to `CNCCN(C)Cc1c[nH]nc1[C@H]1CC[C@@]2(CCN(Cc3ccc(OCCOC)cc3)C2=O)CC1` [Compound 120], the negative logarithm of the IC50 (pIC50) is greater than 7.00. For the same molecule, the pIC50 under setting [1] is 7.60.
In the same order, the values of `CNCCN(C)Cc1c[nH]nc1[C@H]1CC[C@]2(CCN(Cc3ccc(F)cc3)C2=O)CC1` [Compound 123] are greater than 7.00 and 7.61.
For `CNCCN(C)Cc1c[nH]nc1C1CCC2(CC1)CCC(F)(F)CC2` [Compound 130], the pIC50 is greater than 7.00. Under setting [1], the pIC50 was 8.35.
On the same counts, the results for `CNCCN(C)Cc1c[nH]nc1[C@H]1CC[C@@H](COC)CC1` [Compound 166] are greater than 7.00 and 7.64.
On the same counts, the results for `CNCCN(C)Cc1c[nH]nc1[C@H]1CC[C@@H](N(CC2CCOCC2)C(=O)CC(C)C)CC1` [Compound 107] are greater than 7.00 and 7.26.
On the same counts, the results for `CNCCN(C)Cc1c[nH]nc1[C@H]1CC[C@H](OCCOc2ccc(OC)cc2)CC1` [Compound 186] are greater than 7.00 and 7.05.
Regarding `CNCCN(C)Cc1c[nH]nc1C1CCC2(CCOCC2)CC1` [Compound 178], the negative logarithm of the IC50 (pIC50) was greater than 7.00. Further, the pIC50 under setting [1] was 7.69.
On the same counts, the results for `CNCCN(C)Cc1c[nH]nc1C1CCC2(CC1)CCN(CCC(C)C)C2=O` (stereo not shown) [Compound 163] are greater than 7.00 and 7.80.
In the same order, the values of `CNCCN(C)Cc1c[nH]nc1C1CC(OC(C)C)CC(OC(C)C)C1` (stereo not shown) [Compound 118] are less than 5.00 and less than 5.00.
Turning to `CNCCN(C)Cc1c[nH]nc1C1CCCC(COCCC(O)CO)C1` (stereo not shown) [Compound 113], the pIC50 is 6.00 to 7.00. Further, under setting [1], the negative-log IC50 (pIC50) is 6.92.
In the same order, the values of `CNCCN(C)Cc1c[nH]nc1C1CC(COC)CC(COC)C1` (stereo not shown) [Compound 138] are 5.52 to 6.00 and 5.84.
On the same counts, the results for `CNCCN(C)Cc1c[nH]nc1C1CCC2(CC1)CC(=O)N(CCC(C)C)C2` (stereo not shown) [Compound 165] are greater than 7.00 and 7.74.
In the case of `CNCCN(C)Cc1c[nH]nc1C1CC(C)OC(C)C1` (stereo not shown) [Compound 179], the pIC50 was greater than 7.00. In addition, the pIC50 under setting [1] is 7.24.
